Source: patent EP4759805A1, “NLRP3 INFLAMMASOME INHIBITOR AND USE THEREOF” (NEUROCRINE BIOSCIENCES, INC., priority 2023, dated 2025)

What follows are molecules tested against T1, NLRP3 inflammasome (Homo sapiens, UniProt Q96P20) (assay: Cell assay of inhibitory activity against NLRP3 inflammasome in THP-1 cells (LPS/nigericin stimulation, caspase-1 glo readout)). Details: PMA-differentiated THP-1 cells; LPS 500 ng/ml 3 h, compound 1 h, nigericin 10 µg/ml 30 min; active caspase-1 in supernatant.
T1 construct: endogenous in cells; host or cells: THP-1 cells (PMA-differentiated, LPS-primed, nigericin-stimulated)
Type: cell-based
Description: Experimental Example 1: Cell assay of inhibitory activity of the compounds of the present disclosure against NLRP3 inflammasome
Test compounds: the compounds of the present disclosure prepared in accordance with the methods described in the Examples
THP-1 was an immortalized human macrophage cell line.
Test instrument: Microplate reader (manufactured by PE)
• 1. THP-1 cells were cultured in 1640 complete medium (500 ml 1640+56 ml FBS+560 µl 1000× P/S+2 µl mercaptoethanol), and used within 3 to 20 passages. • 2. Coating of culture plates: 100 µl of polylysine solution was added into a 96-well cell culture plate and incubated at 37°C for 30min. The solution was discarded, and the plate was washed twice with PBS for later use. • 3. Induction of differentiation of THP-1: THP-1 cells were resuspended in an appropriate amount of complete medium containing 10 ng/ml PMA to achieve a cell density of 5×10^5 cells /ml in the suspension. The cell suspension was added into a 96-well plate with 100 µl of cell suspension per well, and the 96-well plate was cultured overnight for 16 hours in a 37°C CO2 cell incubator. • 4. Stimulation of THP-1: • a. Serum-free THP-1 culture medium containing LPS was added to achieve a final concentration of 500 ng/ml, and the resultant was cultured in a 37°C CO2 cell incubator for 3h; • b. The compounds to be tested were prepared into stock solutions at gradient concentrations with DMSO. The resulting solutions were added to the cells, evenly mixed, and finally diluted at 1:1000. The 96-well plate was cultured in a 37°C CO2 cell incubator for 1h. • c. Nigericin was added to each well to achieve a final concentration of 10 µg/ml, and the resultant was cultured in a 37°C CO2 cell incubator for 30 min. • d. The resulting culture medium in each well was transferred to a new culture plate, which was then centrifuged at 3000 rpm for 5min. Afterwards, the supernatant was transferred to a new 96-well plate. • e. The collected supernatant samples of the cell culture medium were determined by using a commercial caspase-1 glo kit, and the content of human active caspase-1 was determined according to the manufacturer's instructions.

T1 sequence (Q96P20 whole entry): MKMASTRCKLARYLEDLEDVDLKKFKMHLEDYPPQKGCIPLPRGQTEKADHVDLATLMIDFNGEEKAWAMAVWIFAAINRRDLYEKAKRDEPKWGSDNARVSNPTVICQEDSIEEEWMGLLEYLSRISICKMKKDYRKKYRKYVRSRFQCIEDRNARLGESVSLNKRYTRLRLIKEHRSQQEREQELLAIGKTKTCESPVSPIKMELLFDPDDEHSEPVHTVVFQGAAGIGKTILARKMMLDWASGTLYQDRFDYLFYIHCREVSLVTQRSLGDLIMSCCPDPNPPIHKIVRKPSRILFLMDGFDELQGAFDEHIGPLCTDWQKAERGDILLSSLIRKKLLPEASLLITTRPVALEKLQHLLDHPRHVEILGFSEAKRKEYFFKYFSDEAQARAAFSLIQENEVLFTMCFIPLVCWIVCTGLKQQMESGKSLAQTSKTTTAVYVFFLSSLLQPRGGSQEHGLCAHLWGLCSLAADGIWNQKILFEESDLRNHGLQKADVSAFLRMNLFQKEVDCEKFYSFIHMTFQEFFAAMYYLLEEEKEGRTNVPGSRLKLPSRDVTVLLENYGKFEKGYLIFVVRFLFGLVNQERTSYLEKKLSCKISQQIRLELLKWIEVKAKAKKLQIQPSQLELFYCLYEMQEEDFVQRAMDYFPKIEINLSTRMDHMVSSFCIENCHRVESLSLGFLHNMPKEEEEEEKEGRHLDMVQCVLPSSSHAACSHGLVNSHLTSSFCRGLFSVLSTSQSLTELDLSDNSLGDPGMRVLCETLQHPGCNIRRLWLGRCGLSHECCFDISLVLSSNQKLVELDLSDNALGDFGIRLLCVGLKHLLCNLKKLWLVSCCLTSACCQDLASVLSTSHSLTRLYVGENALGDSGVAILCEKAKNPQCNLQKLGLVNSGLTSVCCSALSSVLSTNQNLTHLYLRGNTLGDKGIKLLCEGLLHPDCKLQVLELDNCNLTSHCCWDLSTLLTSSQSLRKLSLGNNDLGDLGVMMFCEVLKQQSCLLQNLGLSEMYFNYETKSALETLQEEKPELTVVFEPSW

SMILES	IC50 [nM]
C#Cc1ccc(-c2nnc(NC(=O)[C@H](N)[C@@H](C)O)cc2C2CC2)c(O)c1 [Compound 59, (2R,3R)-2-amino-N-(5-cyclopropyl-6-(4-ethynyl-2-hydroxyphenyl)pyridazin-3-yl)-3-hydro xybutanamide]	32.3
C[C@@H](N)C(=O)Nc1cc(C2CC2)c(-c2ccc(C(F)(F)F)cc2O)nn1 [Compound 50, (R)-2-amino-N-(5-cyclopropyl-6-(2-hydroxy-4-(trifluoromethyl)phenyl)pyridazin-3-yl)pro panamide]	6.8
C#Cc1ccc(-c2nnc(NC(=O)[C@H](C)NC)cc2C2CC2)c(O)c1 [Compound 37, (S)-N-(5-cyclopropyl-6-(4-ethynyl-2-hydroxyphenyl)pyridazin-3-yl)-2-(methylamino)prop anamide]	29.4
C#Cc1ccc(-c2nnc(NC(=O)CNC3CCC3)cc2C)c(O)c1 [Compound 31, N-(6-(4-ethynyl-2-hydroxyphenyl)-5-methylpyridazin-3-yl)-2-(cyclobutylamino)acetamide]	13.1
C#Cc1ccc(-c2nnc(NC(=O)CNC(C)C)cc2C)c(O)c1 [Compound 3, N-(6-(4-ethynyl-2-hydroxyphenyl)-5-methylpyridazin-3-yl)-2-(isopropylamino)acetamide]	32.4
CNCC(=O)Nc1cc(C)c(-c2ccc(C(F)(F)F)cc2O)nn1 [Compound 17, N-(6-(2-hydroxy-4-(trifluoromethyl)phenyl)-5-methylpyridazin-3-yl)-2-(methylamino)acet amide]	17.8
C#Cc1ccc(-c2nnc(NC(=O)[C@@H](C)NC)cc2C2CC2)c(O)c1 [Compound 36, (R)-N-(5-cyclopropyl-6-(4-ethynyl-2-hydroxyphenyl)pyridazin-3-yl)-2-(methylamino)prop anamide]	2.9
C#Cc1ccc(-c2nnc(NC(=O)[C@H](N)C3CC3)cc2C2CC2)c(O)c1 [Compound 53, (R)-2-amino-2-cyclopropyl-N-(5-cyclopropyl-6-(4-ethynyl-2-hydroxyphenyl)pyridazin-3-yl)acetamide]	5.9
C#Cc1ccc(-c2nnc(NC(=O)CNC3CC(O)C3)cc2C2CC2)c(O)c1 (centres unmarked) [Compound 33, N-(5-cyclopropyl-6-(4-ethynyl-2-hydroxyphenyl)pyridazin-3-yl)-2-((3-hydroxycyclobutyl)amino)acetamide]	14.5
C#Cc1ccc(-c2nnc(NC(=O)CNC)cc2C)c(O)c1 [Compound 1, N-(6-(4-ethynyl-2-hydroxyphenyl)-5-methylpyridazin-3-yl)-2-(methylamino)acetamide]	16.5
C#Cc1ccc(-c2nnc(NC(=O)CN)cc2C2CC2)c(O)c1 [Compound 13, 2-amino-N-(5-cyclopropyl-6-(4-ethynyl-2-hydroxyphenyl)pyridazin-3-yl)acetamide]	23.2
CNCC(=O)Nc1cc(C(C)C)c(-c2ccc(C(F)(F)F)cc2O)nn1 [Compound 19, N-(6-(2-hydroxy-4-(trifluoromethyl)phenyl)-5-isopropylpyridazin-3-yl)-2-(methylamino)a cetamide]	3.4
CNCC(=O)Nc1cc(C2CCC2)c(-c2ccc(C(F)(F)F)cc2O)nn1 [Compound 61, N-(5-cyclobutyl-6-(2-hydroxy-4-(trifluoromethyl)phenyl)pyridazin-3-yl)-2-(methylamino) acetamide]	6.2
C#Cc1ccc(-c2nnc(NC(=O)[C@H](N)COC)cc2C2CC2)c(O)c1 [Compound 51, (R)-2-amino-N-(5-cyclopropyl-6-(4-ethynyl-2-hydroxyphenyl)pyridazin-3-yl)-3-methoxyp ropanamide]	14.6
C#Cc1ccc(-c2nnc(NC(=O)[C@H](N)[C@H](C)O)cc2C2CC2)c(O)c1 [Compound 57, (2R, 3S)-2-amino-N-(5-cyclopropyl-6-(4-ethynyl-2-hydroxyphenyl)pyridazin-3-yl)-3-hydroxyb utanamide]	17.5
C#Cc1ccc(-c2nnc(NC(=O)CNCC)cc2C2CC2)c(O)c1 [Compound 8, N-(5-cyclopropyl-6-(4-ethynyl-2-hydroxyphenyl)pyridazin-3-yl)-2-(ethylamino)acetamide]	1.4
C[C@@H](N)C(=O)Nc1cc(C2CCC2)c(-c2ccc(C(F)(F)F)cc2O)nn1 [Compound 63, (R)-2-amino-N-(5-cyclobutyl-6-(2-hydroxy-4-(trifluoromethyl)phenyl)pyridazin-3-yl)prop anamide]	7.2
CNCC(=O)Nc1cc(C2CC2)c(-c2ccc(Cl)cc2O)nn1 [Compound 67, N-(6-(4-chloro-2-hydroxyphenyl)-5-cyclopropylpyridazin-3-yl)-2-(methylamino)acetamide]	5.6
C#Cc1ccc(-c2nnc(NC(=O)CNCC3CC3)cc2C)c(O)c1 [Compound 34, N-(6-(4-ethynyl-2-hydroxyphenyl)-5-methylpyridazin-3-yl)-2-((cyclopropylmethyl)amino) acetamide]	18.8
CC(C)c1cc(NC(=O)[C@@H](C)N)nnc1-c1ccc(C(F)(F)F)cc1O [Compound 64, (R)-2-amino-N-(6-(2-hydroxy-4-(trifluoromethyl)phenyl)-5-isopropylpyridazin-3-yl)propa namide]	14.1
C#Cc1ccc(-c2nnc(NC(=O)[C@H](N)Cc3ccccc3)cc2C2CC2)c(O)c1 [Compound 52, (R)-2-amino-N-(5-cyclopropyl-6-(4-ethynyl-2-hydroxyphenyl)pyridazin-3-yl)-3-phenylpro panamide]	12.9
C#Cc1ccc(-c2nnc(NC(=O)CNC)cc2C2CCC2)c(O)c1 [Compound 62, N-(5-cyclobutyl-6-(4-ethynyl-2-hydroxyphenyl)pyridazin-3-yl)-2-(methylamino)acetamide]	20.9
C#Cc1ccc(-c2nnc(NC(=O)CNC)cc2C(C)C)c(O)c1 [Compound 16, N-(6-(4-ethynyl-2-hydroxyphenyl)-5-isopropylpyridazin-3-yl)-2-(methylamino)acetamide]	8.5
C#Cc1ccc(-c2nnc(NC(=O)[C@@H](C)N)cc2C2CCC2)c(O)c1 [Compound 65, (R)-2-amino-N-(5-cyclobutyl-6-(4-ethynyl-2-hydroxyphenyl)pyridazin-3-yl)propanamide]	31.5
CNCC(=O)Nc1nnc(-c2ccc(C(F)(F)F)cc2O)c(C2CC2)n1 [Compound 60, N-(5-cyclopropyl-6-(2-hydroxy-4-(trifluoromethyl)phenyl)-1,2,4-triazin-3-yl)-2-(methylamino)acetamide]	32.1
C#Cc1ccc(-c2nnc(NC(=O)[C@H]3CCCN3)cc2C2CC2)c(O)c1 [Compound 43, (R)-N-(5-cyclopropyl-6-(4-ethynyl-2-hydroxyphenyl)pyridazin-3-yl)pyrrolidine-2-carboxamide]	21.4
C#Cc1ccc(-c2nnc(NC(=O)[C@H](N)C(C)C)cc2C2CC2)c(O)c1 [Compound 56, (R)-2-amino-N-(5-cyclopropyl-6-(4-ethynyl-2-hydroxyphenyl)pyridazin-3-yl)-3-methylbut anamide]	7.1
C#Cc1ccc(-c2nnc(NC(=O)[C@H](N)CO)cc2C2CC2)c(O)c1 [Compound 55, (R)-2-amino-N-(5-cyclopropyl-6-(4-ethynyl-2-hydroxyphenyl)pyridazin-3-yl)-3-hydroxypr opanamide]	23.6
C#Cc1ccc(-c2nnc(NC(=O)CNC3CC3)cc2C2CC2)c(O)c1 [Compound 10, N-(5-cyclopropyl-6-(4-ethynyl-2-hydroxyphenyl)pyridazin-3-yl)-2-(cyclopropylamino)acet amide]	19.2
